Assay results taken from patent publication US20120225909A1, “INDAZOLE ANALOG” (priority 2009, published 2012).
Like-named read-outs stand apart in the source and are kept apart here.

Tests used:
[1] = molecular target: T1, human β3-adrenergic receptor (Homo sapiens, UniProt P13945); test: Test Case 1-B: human β3-adrenergic receptor agonist activity (cAMP-Screen, 96-well); format: cell-based
T1 construct: A full-length human β3 gene is obtained from a human genomic library (made by Clontech) using this as the probe; expressed in transfected cells; host or cells: CHO (Chinese hamster ovary) cells, pcDNA3
T1 sequence (P13945 whole entry): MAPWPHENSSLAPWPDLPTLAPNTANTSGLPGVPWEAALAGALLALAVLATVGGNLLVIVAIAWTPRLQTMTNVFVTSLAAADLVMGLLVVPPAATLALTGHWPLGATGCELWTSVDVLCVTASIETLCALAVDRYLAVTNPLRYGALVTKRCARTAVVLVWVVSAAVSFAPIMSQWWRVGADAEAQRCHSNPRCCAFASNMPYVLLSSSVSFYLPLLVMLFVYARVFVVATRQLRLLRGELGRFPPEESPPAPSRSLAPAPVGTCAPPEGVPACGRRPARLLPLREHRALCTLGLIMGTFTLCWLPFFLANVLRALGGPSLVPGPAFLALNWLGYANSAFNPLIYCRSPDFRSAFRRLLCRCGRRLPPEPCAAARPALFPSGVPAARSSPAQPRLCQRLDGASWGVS
Outline: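 CHO cells stably transfected with full-length human β3 gene, serum-starved 15 min, then exposed to serially diluted compound in Ham's F-12 with 100 mmol/L HEPES and 1 mmol/L IBMX (diluent concentrations) for 30 min. Cells lysed 30 min at 37 °C; cAMP quantified by cAMP-Screen immunoassay.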

[2] = molecular target: T2, human β1-adrenergic receptor (Homo sapiens, UniProt P08588); test: Test Case 2-B: human β1-adrenergic receptor agonist activity; format: cell-based; conditions: read-out: β1 receptor I.A.
T2 construct: expressed in transfected cells; host or cells: CHO (Chinese hamster ovary) cells, pcDNA3
T2 sequence (P08588 whole entry): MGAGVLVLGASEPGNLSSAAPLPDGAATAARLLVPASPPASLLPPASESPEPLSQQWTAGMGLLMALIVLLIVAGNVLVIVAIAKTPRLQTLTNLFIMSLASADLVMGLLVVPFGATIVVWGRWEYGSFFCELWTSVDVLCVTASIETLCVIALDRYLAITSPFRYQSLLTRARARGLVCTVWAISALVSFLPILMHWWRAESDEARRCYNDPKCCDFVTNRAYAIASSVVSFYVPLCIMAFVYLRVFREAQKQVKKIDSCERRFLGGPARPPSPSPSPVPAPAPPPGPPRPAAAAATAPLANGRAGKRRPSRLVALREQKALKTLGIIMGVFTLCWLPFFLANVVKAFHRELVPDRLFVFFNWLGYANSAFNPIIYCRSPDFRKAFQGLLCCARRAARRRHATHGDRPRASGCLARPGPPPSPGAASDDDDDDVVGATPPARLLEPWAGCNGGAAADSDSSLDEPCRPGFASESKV
Experimental: Measurement of Human β1-Adrenergic Receptor Agonist Activity
The human β1-adrenergic receptor agonist activity is measured by the same method as in Test Case 1-B using CHO (Chinese hamster ovary) cells transfected by a human β1 gene inserted in pcDNA3 (Invitrogen).

[3] = molecular target: T3, human β2-adrenergic receptor (Homo sapiens, UniProt P07550); test: Test Case 3-B: human β2-adrenergic receptor agonist activity; format: cell-based; conditions: read-out: β2 receptor I.A.
T3 construct: expressed in transfected cells; host or cells: CHO (Chinese hamster ovary) cells, pcDNA3
T3 sequence (P07550 whole entry): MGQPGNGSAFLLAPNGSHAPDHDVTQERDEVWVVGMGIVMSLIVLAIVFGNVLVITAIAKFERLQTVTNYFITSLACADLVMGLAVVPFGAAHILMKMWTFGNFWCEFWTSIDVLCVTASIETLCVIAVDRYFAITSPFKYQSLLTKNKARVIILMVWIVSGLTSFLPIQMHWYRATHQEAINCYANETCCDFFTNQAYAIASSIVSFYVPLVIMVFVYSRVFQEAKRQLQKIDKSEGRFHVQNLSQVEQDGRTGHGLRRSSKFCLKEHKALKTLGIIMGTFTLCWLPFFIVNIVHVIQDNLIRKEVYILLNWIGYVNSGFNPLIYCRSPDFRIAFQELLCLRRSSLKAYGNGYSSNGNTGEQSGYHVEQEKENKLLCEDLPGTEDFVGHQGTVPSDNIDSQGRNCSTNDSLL
Experimental: Measurement of Human β2-Adrenergic Receptor Agonist Activity
The human β2-adrenergic receptor agonist activity is measured by the same method as in Test Case 1-B using CHO (Chinese hamster ovary) cells transfected by a human β2 gene inserted in pcDNA3 (Invitrogen).

[4] = tested on: common marmoset isolated bladder smooth muscle; test: Test Case 7: common marmoset isolated bladder smooth muscle relaxation test; conditions: KCl 40 mmol/L contracted marmoset bladder, papaverine 10^−4 mol/L relaxation = 100%
Experimental: Common Marmoset Isolated Bladder Smooth Muscle Relaxation Test
After sacrificing common marmosets (Japan CLEA) by exsanguination, they are laparotomized and the urinary bladder is removed. […] The specimens are loaded with one gram of resting tension and stabilized for 30 or more minutes. After the resting tension of the specimen has stabilized, a final concentration of 40 mmol/L of KCl is added repeatedly, and it is confirmed that the contraction in response to KCl has basically become constant. […] Taking that relaxation response as 100%, the relaxation rate (%) at test compound concentrations of […] is calculated.

[5] = molecular target: T4, human α1A-adrenergic receptor (Homo sapiens, UniProt P35348); test: Test Case 4-A: human α1A-adrenergic receptor agonist activity (HEK293, Ca flux, Fura-2); format: cell-based; parameters: expressed in transfected cells; host or cells: HEK293 cells, pcDNA3.1
T4 sequence (P35348 1-466): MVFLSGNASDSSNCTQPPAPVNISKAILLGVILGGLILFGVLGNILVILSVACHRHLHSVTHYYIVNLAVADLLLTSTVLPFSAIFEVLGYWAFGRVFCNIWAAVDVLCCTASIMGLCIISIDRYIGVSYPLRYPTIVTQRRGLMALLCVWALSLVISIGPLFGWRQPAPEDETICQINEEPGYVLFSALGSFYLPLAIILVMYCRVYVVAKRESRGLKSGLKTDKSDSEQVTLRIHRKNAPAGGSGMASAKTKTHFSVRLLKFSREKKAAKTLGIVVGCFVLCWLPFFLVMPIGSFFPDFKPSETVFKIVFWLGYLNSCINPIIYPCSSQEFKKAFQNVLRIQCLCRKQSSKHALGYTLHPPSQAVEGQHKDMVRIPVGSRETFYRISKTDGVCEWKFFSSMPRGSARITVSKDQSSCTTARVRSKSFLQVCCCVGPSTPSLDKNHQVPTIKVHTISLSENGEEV
Outline: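 Fura-2AM-loaded HEK293 cells transfected with human α1A were preincubated for 180 s. Compound (sample plate 10^−5 to 10^−12 M) was added after ~30 s of 340/380 nm excitation ratio reading (500 nm emission, 2-s intervals), followed by 270 s more reading. Ca flux is the peak height: maximum ratio after addition minus the pre-addition ratio.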

[6] = 0.5 h; read-out: β3 receptor I.A.
[7] = HEK293; read-out: α1A receptor I.A.

Compound | Emax ([1]; 0.5 h, read-out: β3 receptor I.A.) | EC50 ([1]; Test Case 1-B; CHO cells, cAMP) | Emax [2] | Emax [3] | relaxant activity (%) 10^−4M [4] | relaxant activity (%) 10^−5M [4] | Emax ([5]; HEK293, read-out: α1A receptor I.A.) | Emax [1, 6] | Emax [5, 7]
Cc1n[nH]c2cc(OCCNC[C@H](O)c3cccc(NS(=O)(=O)C4CCC4)c3)ccc12 [ex3, (R)—N-(3-(1-hydroxy-2-(2-(3-methylindazol-6-yloxy)ethylamino)ethyl)phenyl)cyclobutanesulfonamide] | 105% | 17 nM | 4% | 1% | 63.2% | 36.6% | 0% | – | –
Cc1n[nH]c2cc(OCCNC[C@H](O)c3cccc(NS(=O)(=O)c4ccccc4F)c3)ccc12 [ex235, (R)-2-fluoro-N-(3-(1-hydroxy-2-(2-(3-methylindazol-6-yloxy)ethylamino)ethyl)phenyl)benzenesulfonamide] | – | 28 nM | 16% | 2% | 55.3% | 24.3% | – | 113% | 0%
O=S(=O)(Nc1cccc([C@@H](O)CNCCOc2ccc3c(OC(F)F)n[nH]c3c2)c1)C1CC1 [ex4, (R)—N-(3-(2-(2-(3-(difluoromethoxy)-indazol-6-yloxy)ethylamino)-1-hydroxyethyl)phenyl)cyclopropanesulfonamide] | – | 38 nM | 2% | 1% | 53.7% | 30.1% | – | 77% | 0%
